This note sets out measurements from US9006394B2, “Peptide-presenting surfaces for long-term culture of pluripotent cells” (Wisconsin Alumni Research Foundation, priority 2008, dated 2015).

Ends that are not written are not given here.

The test system of assay [1] is human ESCs (H9). The assay can be described thus: Cell adhesion (CellTiter-Glo) with soluble heparin or chondroitinase ABC. It counts as cell-based. The note with it: 1 hour. The protocol:
To determine the effect of a soluble GAG on hESC binding to GBPs, hESCs were plated onto Matrigel-coated surfaces, vitronectin-coated surfaces, or surfaces presenting the heparin-binding peptide […] (SEQ ID NO: 1) in the presence or absence of soluble heparin (0.5 mg/mL). After 1 hour, the surfaces were washed and the cells lysed. The cell lysates were used to determine approximate cell numbers using Cell Titer Glo (Promega). The ratio of the mean luminescence of the cell lysates of cells plated in the presence of heparin versus those without heparin was expressed as percent cell binding for each surface.
To determine if glycosaminoglycans (GAGs) are required for GBP binding, human ESCs (H9) cultured on Matrigel were dissociated using an enzyme-free, Hanks'-based cell dissociation buffer (Sigma) for 10-15 minutes. Cells were resuspended in DMEM/F12 (Gibco), or DMEM/F12 supplemented with 2 units/mL chondroitinase ABC (Sigma), or 500 ug/mL heparin (Sigma). Cells treated with the GAG-degrading enzymes were incubated for 1 hour in suspension at 37° C. Cell suspensions were seeded onto Matrigel-coated surfaces, recombinant vitronectin-coated surfaces (10 μg/mL, R&D Systems), or SAMs presenting the peptide […] (SEQ ID NO: 1) at a 5% surface density. After 1 hour, surfaces were washed 3 times with PBS and the cells were lysed with M-PER buffer (Thermo Fisher Scientific, Inc., Rockford, Ill.). The cell lysate was mixed with CellTiter-Glo (Promega) to determine the number of viable cells in culture based on the presence of ATP. The luminescence was measured on 20/20^n luminometer (Turner Biosystems, Inc., Sunnyvale Calif.). • Cell Growth: […]
In general terms: ATP-based viability assays read luminescence as a measure of living cells.

In assay [2] the test system is hESCs. Briefly: Long-term (3 months) culture on defined surfaces, markers of pluripotency. It counts as cell-based, human. To be noted: 3 months of continuous passaging. From the text: Preferably, one spots ATs onto an inert background to form self-assembling monolayers (SAMs). See, e.g., Derda et al., supra; Derda R, et al., “Solid-phase synthesis of alkanethiols for the preparation of self-assembled monolayers,” Langmuir 23:11164-11167 (2007); and Houseman B & Mrksich M, “Efficient solid-phase synthesis of peptide-substituted alkanethiols for the preparation of substrates that support the adhesion of cells,” J. Org. Chem. 63:7552-7555 (1998), each of which is incorporated herein by reference as if set forth in its entirety. For example, a background can be formed of perfluoro-AT, which can be both cytophobic (i.e., repel cells) and solvophobic (i.e., repel solvents). First, a gold-coated surface can be coated with a perfluoro-AT monolayer, either leaving areas (i.e., holes) in the monolayer for the elements of an array or creating areas in the monolayer for the elements of the array in a subsequent step. Then, ATs coupled to a peptide, such as an GBP as described herein, can be attached to the substrate in the holes to complete the monolayer and to present ligands for pluripotent cell attachment to the surface. Surface density of the GBPs can be controlled using mixed SAMs of peptide-ATs and non-adhesive glucamine-ATs. […]
Flow cytometry data was obtained using a FACSCalibur™ (BD Biosciences) and analyzed using FlowJo Software (Tree Star, Inc.; Ashland, Oreg.). […]

Assay [3] deals with pluripotent stem cells. Briefly: Number of cell divisions by fluorescent cell staining. To be noted: listed as GKKQRFRHRNKG
It counts as cell-based, human.

Assay [4] relates to hESCs. The assay can be described thus: Embryoid body differentiation after long-term culture, germ layer marker staining. The format is cell-based, human. The note with it: 3 months on surface, then 2 weeks EB suspension culture. The text has this: Images were collected with a Hamamatsu (Bridgewater, N.J.) Digital Camera mounted onto an Olympus IX81 Microscope. Primary antibodies used were as follows: Oct-4 (1:400; R&D Systems; Minneapolis, Minn.), SSEA-4 (1:400; Santa Cruz Biotechnology; Santa Cruz, Calif.), β-III tubulin (1:3000; R&D Systems), nestin (1:3000), α-fetoprotein (1:250; Sigma), FoxA2 (1:100; R&D Systems), α-smooth muscle actin (1:1000; Sigma), and fatty acid binding protein 4 (1:250; R&D Systems). Cells were fixed with PBS containing 4% formaldehyde and 0.15% picric acid for 20 minutes at 37° C. and then permeabilized and blocked with PBS containing 0.1% Triton X-100 and 0.1% bovine serum albumin (BSA). All antibodies were incubated in blocking buffer overnight at 4° C., except for the antibodies against β-III tubulin, nestin and α-smooth muscle actin, which were incubated for 1 hour at room temperature. Secondary staining was performed with Alexa Fluor® 488- and/or 594-conjugated antibodies (1:1000; Invitrogen) diluted in blocking buffer and incubated for 1 hour at room temperature. Cells were counterstained with 4′,6-diamidino-2-phenylindole, dilactate (DAPI; Invitrogen). Image overlays were generated using ImageJ (ImageJ is a public domain Java image processing program available on the World Wide Web). Peptide array mosaics were generated using the AnalySIS Acquisition Software (Olympus).

Turning to “GKKQRFRHRNRKG (not fully specified (C-terminus); listed as Homo sapiens)”, in assay [1] (2 units/mL chondroitinase ABC, 5% surface density), the “adhesion of cells treated with chondroitinase ABC” value is reported as “decreased adhesion”. Further, the “hESC binding in the presence of soluble heparin” value in assay [1] (soluble heparin 0.5 mg/mL) is given as “abrogate hESC binding”. Also, in assay [2], the “markers of pluripotency after 3 months of culture” value is recorded as “maintained high levels of markers of pluripotency”. For the same sequence, the “markers of pluripotency after 3 months of culture” value in assay [2] (listed as SEQ ID NO:1) is given as “maintained at high levels”. In addition, in assay [3], the “number of cell divisions” value is listed as “superior to polylysine-coated surfaces”. Moreover, in assay [4], the “ectoderm derivatives: staining for β-III tubulin and nestin” value was “stained positive”; the “endoderm derivatives: staining for α-fetoprotein and FoxA2” value is “stained positive”; the “mesoderm derivatives: staining for fatty acid binding protein 4 and α-smooth muscle actin” value is reported as “stained positive”.
